Test results as given in patent US20260215887A1, “COATING COMPOSITION FOR THE TREATMENT OR PREVENTION OF PERIIMPLANTITIS AND PREPARATION METHOD THEREOF” (UNIVERSITAT JAUME I, priority 2023, published 2026).

Tests used:
[1] = tested on: Staphylococcus aureus; settings: known in the art; cited from earlier work
[2] = tested on: Streptococcus Gordonii (CECT 804); experiment: Proliferation and bacterial count on inoculated grade-IV titanium disks; format: cell-based
Source text: The mechanism of action of the composition of Example 1 was further investigated by studying in parallel assays the proliferation of bacterial population of Streptococcus Gordonii on grade-IV titanium plates which are either uncoated or coated with M1 (free of octenidine) or M3 (2% in weight of octenidine) or with a solution of octenidine having an equivalent amount of octenidine as the composition M3. The following experimental procedure was used.
All materials used were sterile or have been previously sterilized by autoclaving. The assays were performed inside a level 2 biosafety cabinet. Three different grade IV-Ti disks were used to perform the assay. This procedure was carried out for each of the assays: First, a suspension of Streptococcus Gordonii (CECT 804) of known concentration was prepared. For this purpose, a test tube is prepared with 10 mL of d.d. H2O to which bacteria were added until the desired concentration (Concentration=1×10^6 CFU/mL). […] 500 μL of bacterial suspension of known concentration (1×10^6 CFU/mL) was then added in wells of a sterile 24-well plate. Subsequently, the grade-IV Ti disc was immersed in the bacterial suspension for 1 minute (1 disk per well) in order to inoculate the disc. […]
Once this time was elapsed, bacteria population was counted. […]

Compound: CCCCCCCCN=c1ccn(CCCCCCCCCCn2ccc(=NCCCCCCCC)cc2)cc1 [octenidine]
- minimal bactericide concentration (MBC) [1]: < 2 µg/mL
- minimal inhibitory concentration (MIC) [1]: < 2 µg/mL
- proliferation of bacteria population on coated disks ([2]; after 24 hours incubation at 37° C., FIG. 22): significant reduction of bacteria proliferation
- bacterial count of bacteria adhered to the titanium surface ([2]; average of three samples per disk, 24 h at 37° C., uncoated disk 1,726 × 10^7): 483,33 CFU/mL
